Assay results taken from PubChem BioAssay (NCI).
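Assay format: 96-well plates, 48-hour exposure. Abbreviation: GI50, concentration required for 50% inhibition of growth. TGI is the concentration that stops growth completely.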

Columns and labels:
Assay in all cases: NCI-60 cell line screen, 48 h
DU-145 prostate = tested on: DU-145 prostate
MCF7 breast = tested on: MCF7 breast
MDA-MB-231 breast = tested on: MDA-MB-231 breast
NCI-H226 lung = tested on: NCI-H226 lung
SF-268 CNS = tested on: SF-268 CNS
SK-MEL-28 melanoma = tested on: SK-MEL-28 melanoma
SK-MEL-5 melanoma = tested on: SK-MEL-5 melanoma
SK-OV-3 ovarian = tested on: SK-OV-3 ovarian
SW-620 colon = tested on: SW-620 colon
UO-31 renal = tested on: UO-31 renal

## COC(=O)c1ccccc1OCc1cc(=O)oc2ccc(C)cc12
DU-145 prostate
  TGI: > 100 µM
MCF7 breast
  TGI: > 100 µM
MDA-MB-231 breast
  TGI: > 100 µM
NCI-H226 lung
  TGI: > 100 µM
SF-268 CNS
  TGI: > 82.7 µM
SK-MEL-28 melanoma
  TGI: > 100 µM
SK-MEL-5 melanoma
  TGI: > 100 µM
SK-OV-3 ovarian
  TGI: > 100 µM
SW-620 colon
  TGI: > 100 µM
UO-31 renal
  TGI: > 100 µM

## COc1cccc(-n2nc(C)c3c(N/N=C(\C)c4ccncc4)ncnc32)c1
DU-145 prostate
  GI50: > 25 µM
  TGI: > 25 µM
MCF7 breast
  GI50: > 25 µM
  TGI: > 25 µM
MDA-MB-231 breast
  GI50: 8.4 µM
  TGI: > 25 µM
NCI-H226 lung
  GI50: > 8.39 µM
  TGI: > 25 µM
SF-268 CNS
  GI50: > 25 µM
  TGI: > 25 µM
SK-MEL-28 melanoma
  GI50: > 25 µM
  TGI: > 25 µM
SK-MEL-5 melanoma
  GI50: 3.02 µM
  TGI: > 25 µM
SK-OV-3 ovarian
  GI50: 13.4 µM
  TGI: > 25 µM
SW-620 colon
  GI50: > 25 µM
  TGI: > 25 µM
UO-31 renal
  GI50: 13.8 µM
  TGI: > 25 µM

## Nc1nc(N)c2nc(CNc3ccc(C(=O)NC(CC(=O)O)C(=O)O)cc3)cnc2n1 (stereo not given)
DU-145 prostate
  GI50: 0.682 µM
  TGI: > 100 µM
MCF7 breast
  GI50: 0.631 µM
  TGI: > 100 µM
MDA-MB-231 breast
  GI50: > 100 µM
  TGI: > 100 µM
NCI-H226 lung
  GI50: 30.6 µM
  TGI: > 100 µM
SF-268 CNS
  GI50: 0.528 µM
  TGI: > 100 µM
SK-MEL-28 melanoma
  GI50: > 100 µM
  TGI: > 100 µM
SK-MEL-5 melanoma
  GI50: 3.33 µM
  TGI: > 100 µM
SK-OV-3 ovarian
  GI50: > 53.5 µM
  TGI: > 100 µM
SW-620 colon
  GI50: 0.274 µM
  TGI: > 100 µM
UO-31 renal
  GI50: 1.18 µM
  TGI: > 35.9 µM

## Cc1cc(C(=C2C=CC(=Nc3ccccc3)C=C2)c2ccc(Nc3ccccc3)cc2)ccc1N
DU-145 prostate
  GI50: 0.507 µM
  TGI: 1.58 µM
MCF7 breast
  GI50: 0.346 µM
  TGI: 1.37 µM
MDA-MB-231 breast
  GI50: 0.363 µM
  TGI: 1.34 µM
NCI-H226 lung
  GI50: 0.446 µM
  TGI: 1.72 µM
SF-268 CNS
  GI50: 0.651 µM
  TGI: 1.83 µM
SK-MEL-28 melanoma
  GI50: 0.368 µM
  TGI: 1.4 µM
SK-MEL-5 melanoma
  GI50: 0.253 µM
  TGI: 0.718 µM
SK-OV-3 ovarian
  GI50: 1.52 µM
  TGI: 2.9 µM
SW-620 colon
  GI50: 0.29 µM
  TGI: 1.05 µM
UO-31 renal
  GI50: 0.305 µM
  TGI: 1.38 µM

## O=C(O)C1OC1(c1cccc(Cl)c1)c1ccccc1Cl (stereo not given)
DU-145 prostate
  TGI: 77.5 µM
MCF7 breast
  TGI: > 100 µM
MDA-MB-231 breast
  TGI: 35.8 µM
NCI-H226 lung
  TGI: 83.8 µM
SF-268 CNS
  TGI: 47.8 µM
SK-MEL-28 melanoma
  TGI: 61.3 µM
SK-MEL-5 melanoma
  TGI: 35.4 µM
SK-OV-3 ovarian
  TGI: 66.8 µM
SW-620 colon
  TGI: > 100 µM
UO-31 renal
  TGI: 58.5 µM

## CCn1cnc(C[C@H](NC(=O)[C@@H](NC(=O)Nc2cc(C(F)(F)F)cc(C(F)(F)F)c2)C(C)C)C(=O)OC)c1
DU-145 prostate
  GI50: 2.26 µM
  TGI: 4.84 µM
MCF7 breast
  GI50: 1.83 µM
  TGI: 3.8 µM
MDA-MB-231 breast
  GI50: 1.9 µM
  TGI: 4.11 µM
NCI-H226 lung
  GI50: 3.74 µM
  TGI: > 10 µM
SF-268 CNS
  GI50: 1.76 µM
  TGI: 3.4 µM
SK-MEL-28 melanoma
  GI50: 1.98 µM
  TGI: 4.28 µM
SK-MEL-5 melanoma
  GI50: 4.31 µM
  TGI: > 10 µM
SK-OV-3 ovarian
  GI50: 2.06 µM
  TGI: 4.41 µM
SW-620 colon
  GI50: 2.01 µM
  TGI: 4.01 µM
UO-31 renal
  GI50: > 10 µM
  TGI: > 10 µM

## CNC(=O)c1cccc2cc(Oc3ccnc4cc(OCC5(N)CC5)c(OC)cc34)ccc12
DU-145 prostate
  GI50: 12.1 µM
  TGI: 25.5 µM
MCF7 breast
  GI50: 3.89 µM
  TGI: 17.8 µM
MDA-MB-231 breast
  GI50: 9.79 µM
  TGI: 27.9 µM
NCI-H226 lung
  GI50: 1.02 µM
  TGI: 23.2 µM
SF-268 CNS
  GI50: 6.01 µM
  TGI: 24.2 µM
SK-MEL-28 melanoma
  GI50: 10.4 µM
  TGI: 30.3 µM
SK-MEL-5 melanoma
  GI50: 13.4 µM
  TGI: 26.7 µM
SK-OV-3 ovarian
  GI50: 12.1 µM
  TGI: 26.3 µM
SW-620 colon
  GI50: 5.96 µM
  TGI: 20.5 µM
UO-31 renal
  GI50: 2.57 µM
  TGI: 8.16 µM

## O=C(Nc1cccc(-n2cc(-c3ccncc3)c(-c3ccc(Cl)c(O)c3)n2)c1)c1ccc(N2CCOCC2)c(C(F)(F)F)c1
DU-145 prostate
  GI50: 4.2 µM
  TGI: > 50 µM
MCF7 breast
  GI50: 2.81 µM
  TGI: > 50 µM
MDA-MB-231 breast
  GI50: 0.975 µM
  TGI: 15.6 µM
NCI-H226 lung
  GI50: > 50 µM
  TGI: > 50 µM
SF-268 CNS
  GI50: 5.58 µM
  TGI: > 50 µM
SK-MEL-28 melanoma
  GI50: 1.5 µM
  TGI: 6.04 µM
SK-MEL-5 melanoma
  GI50: 2.47 µM
  TGI: 10.2 µM
SK-OV-3 ovarian
  GI50: 20 µM
  TGI: > 50 µM
SW-620 colon
  GI50: 1.72 µM
  TGI: 5.68 µM
UO-31 renal
  GI50: 2.6 µM
  TGI: 34.3 µM

## COC1=CC(c2ccc[nH]2)=N/C1=C\c1[nH]c(C)c(C(=O)CCCCC(=O)NC(C)(C)C)c1C
DU-145 prostate
  GI50: 1.69 µM
  TGI: 3.79 µM
MCF7 breast
  GI50: 1.5 µM
  TGI: 2.92 µM
MDA-MB-231 breast
  GI50: 0.957 µM
  TGI: 3.95 µM
NCI-H226 lung
  GI50: 2.97 µM
  TGI: 15 µM
SF-268 CNS
  GI50: 1.6 µM
  TGI: 4.32 µM
SK-MEL-28 melanoma
  GI50: 1.59 µM
  TGI: 3.2 µM
SK-MEL-5 melanoma
  GI50: 1.97 µM
  TGI: 5.24 µM
SK-OV-3 ovarian
  GI50: 9.31 µM
  TGI: 25.5 µM
SW-620 colon
  GI50: 0.947 µM
  TGI: 2.26 µM
UO-31 renal
  GI50: 1.95 µM
  TGI: 6.27 µM

## Cc1ccc(C(CC(=O)c2ccccc2)C2C(=O)NC(=O)NC2=O)cc1 (stereo not given)
DU-145 prostate
  GI50: > 100 µM
  TGI: > 100 µM
MCF7 breast
  GI50: > 100 µM
  TGI: > 100 µM
MDA-MB-231 breast
  GI50: > 100 µM
  TGI: > 100 µM
NCI-H226 lung
  GI50: > 100 µM
  TGI: > 100 µM
SF-268 CNS
  GI50: > 100 µM
  TGI: > 100 µM
SK-MEL-28 melanoma
  GI50: > 100 µM
  TGI: > 100 µM
SK-MEL-5 melanoma
  GI50: > 100 µM
  TGI: > 100 µM
SK-OV-3 ovarian
  GI50: > 100 µM
  TGI: > 100 µM
SW-620 colon
  GI50: > 100 µM
  TGI: > 100 µM
UO-31 renal
  GI50: > 100 µM
  TGI: > 100 µM

## O=c1ccn(C2CC(O)C(CO)O2)c(=O)[nH]1 (stereo not given)
DU-145 prostate
  GI50: > 5000 µM
  TGI: > 5000 µM
MCF7 breast
  GI50: 3000 µM
  TGI: > 5000 µM
MDA-MB-231 breast
  GI50: > 5000 µM
  TGI: > 5000 µM
NCI-H226 lung
  GI50: > 5000 µM
  TGI: > 5000 µM
SF-268 CNS
  GI50: > 5000 µM
  TGI: > 5000 µM
SK-MEL-28 melanoma
  GI50: > 5000 µM
  TGI: > 5000 µM
SK-MEL-5 melanoma
  GI50: > 5000 µM
  TGI: > 5000 µM
SK-OV-3 ovarian
  GI50: > 5000 µM
  TGI: > 5000 µM
SW-620 colon
  GI50: > 5000 µM
  TGI: > 5000 µM
UO-31 renal
  GI50: > 5000 µM
  TGI: > 5000 µM

## CCCc1cc(=O)[nH]c(-n2nc(C)cc2C)n1
DU-145 prostate
  GI50: 7.66 µM
  TGI: > 100 µM
MCF7 breast
  GI50: 4.31 µM
  TGI: > 100 µM
MDA-MB-231 breast
  GI50: 4.47 µM
  TGI: > 100 µM
NCI-H226 lung
  GI50: 5.99 µM
  TGI: 55.6 µM
SF-268 CNS
  GI50: 3.19 µM
  TGI: > 100 µM
SK-MEL-28 melanoma
  GI50: 3.8 µM
  TGI: 40.4 µM
SK-MEL-5 melanoma
  GI50: 3.18 µM
  TGI: 47.6 µM
SK-OV-3 ovarian
  GI50: 9.34 µM
  TGI: > 100 µM
SW-620 colon
  GI50: 3.93 µM
  TGI: > 100 µM
UO-31 renal
  GI50: 2.4 µM
  TGI: > 100 µM

## COc1cccc(C2=C(c3c(C)n(C)c4ccccc34)C(=O)NC2=O)c1
DU-145 prostate
  GI50: > 25 µM
  TGI: > 25 µM
MCF7 breast
  GI50: 17.5 µM
  TGI: > 25 µM
MDA-MB-231 breast
  GI50: > 25 µM
  TGI: > 25 µM
NCI-H226 lung
  GI50: > 19.1 µM
  TGI: > 25 µM
SF-268 CNS
  GI50: > 23.1 µM
  TGI: > 25 µM
SK-MEL-28 melanoma
  GI50: 24.9 µM
  TGI: > 25 µM
SK-MEL-5 melanoma
  GI50: 9.81 µM
  TGI: > 25 µM
SK-OV-3 ovarian
  GI50: > 25 µM
  TGI: > 25 µM
SW-620 colon
  GI50: 12.4 µM
  TGI: > 25 µM
UO-31 renal
  GI50: 14 µM
  TGI: > 25 µM
